“Also recorded” adds a separate entry of the source.
How the values were obtained:
[1] = tested on: Human Pancreatic carcinoma cells (MIA-PaCa-2); experiment: MIA-PaCa-2 xenograft tumor growth in mice, SGRM combined with paclitaxel; assay type: in vivo, mice (Balbc/c nude); conditions: SGRM 30 mg/kg orally on day prior to and same day as paclitaxel 7.5 mg/kg intravenously Q4D; MIA-PaCa-2 subcutaneous tumors
Protocol: Human Pancreatic carcinoma cells (MIA-PaCa-2) were purchased from the American Type Cell Collection (ATCC). The cells were grown in Dulbecco's Modified Eagle's Medium (DMEM) containing 10% (v/v) heat inactivated fetal calf serum and 2.5% horse serum at 37° C. Suspensions of the cells were injected subcutaneously into the left flank of 5-6 week old immunocompromised female mice (Balbc/c nude), 3 million cells per mouse. Tumors were allowed to grow until they reach a volume of 100-200 cubic millimeters (mm^3). Mice were then grouped into four groups, ten (10) per group, and treated with compounds or vehicle as follows. Vehicle or paclitaxel was administered intravenously and SGRMs, i.e., CORT25134 and CORT125281, were administered orally. SGRMs were administered in vehicle ((10% dimethyl sulfoxide (DMSO), 0.1% Tween 80 (polyethylene glycol sorbitan monooleate (polysorbate 80)) and 89.9% hydroxypropyl methylcellulose (HPMC) (0.5%)). Group 1 was dosed with the compound vehicle (10% DMSO, 0.1% Tween 80 and 89.9% HPMC (0.5%)) daily. Group 2 was dosed with paclitaxel at 7.5 mg/kg, every four days (“Q4D”). Group 3 was dosed with both paclitaxel at 7.5 mg/kg Q4D and CORT125134 at 30 mg/kg on the day prior to and the same day as the day paclitaxel was administered. Group 4 was dosed with both paclitaxel at 7.5 mg/kg Q4D and CORT125281 at 30 mg/kg on the day prior to and the same day as the day paclitaxel was administered.
The longest (L) and shortest (S) diameters of the tumors were measured three times a week with electronic calipers and tumor volume was calculated using the formula […], where a and b are the long and short diameters of the tumor, respectively. The tumor growth data are shown in The FIGURE, in which the mean tumor volume as compared to the mean pre-dosing tumor volume for each group of mice is plotted against the number of days of tumor growth since initiation of the treatment.

[2] = tested on: exocrine pancreatic tumor; experiment: Treating a patient having pancreatic cancer with SGRM and nab-paclitaxel (Example 3, hypothetical); assay type: in vivo, human; conditions: 200 mg once a day for eight weeks with nab-paclitaxel 80 mg per square meter on days 1, 8, 15 of 28-day cycle; end of the treatment period
Protocol: A typical pancreatic patient may complain of upper abdomen pain that typically radiates to the back. Such a patient may experience loss of appetite, nausea and vomiting episodes, and may suffer significant weight loss. A CT scan may show the presence of a tumor in the pancreas. The presence of an exocrine pancreatic tumor may be confirmed by histological analysis. Blood ACTH level may be within the normal range for ACTH. Such a patient may be treated with CORT125134 at a dose of 200 mg once a day for eight weeks in combination with an intravenous infusion of nab-paclitaxel at a dose of 80 mg per square meter of body-surface area as an intravenous infusion over 30 minutes on days 1, 8, and 15 of every 28-day cycle. Tumor load may be monitored using enhanced MRI before, during and after such treatment. Imaging results may indicate that the size of the tumor gradually decreases; such reduction may be more than 50% at the end of the treatment period.

[3] = tested on: metastatic adenocarcinoma of the pancreas; experiment: Clinical study of CORT125134 with nab-paclitaxel in a patient with advanced pancreatic cancer (Example 4); assay type: in vivo, human
Protocol: A patient with a diagnosis of metastatic adenocarcinoma of the pancreas participated in a clinical study evaluating the efficacy of daily administration of 100 mg of the GR antagonist CORT125134 in combination with nab-paclitaxel infusions weekly for three out of four weeks per cycle. A tumor tissue sample obtained during or prior to the patient's previous treatments was found by immunohistochemistry to have high GR expression, with 90 percent of the cells staining for GR and with a large percentage staining with high intensity. Prior to receiving this combined GR antagonist and nab-paclitaxel treatment, the patient had previously received treatment with multiple lines of chemotherapy: gemcitabine monotherapy; eight months of combination chemotherapy treatment with 5-fluorouracil, leucovorin, irinotecan and oxaliplatin (FOLFIRINOX treatment); five months of treatment with gemcitabine combined with nab-paclitaxel; and four months of combination chemotherapy treatment with 5-fluorouracil, leucovorin, and irinotecan hydrochloride (FOLFIRI treatment). These prior treatments were unsuccessful: the patient's cancer progressed despite these prior chemotherapy treatments.
This patient has so far received 8 months (8 cycles) of the combined treatment of daily 100 mg CORT125134 in combination with nab-paclitaxel infusions weekly for three out of four weeks per cycle. […] When scanned again one month later, the tumor volume was still reduced by approximately 40% compared to baseline volume, thus confirming the PR status. […] The patient remains on the treatment, and continues to tolerate the treatment well.

Compound	tumor growth (mean tumor volume compared to mean pre-dosing tumor volume), combination versus paclitaxel group [1]	tumor growth reduction, comparison among treatment groups [1]	reduction of the size of the tumor (enhanced MRI) [2]	clinical response ([3]; daily 100 mg CORT125134 with nab-paclitaxel infusions weekly three out of four weeks per cycle, 8 months (8 cycles), one patient)	tolerability of the treatment ([3]; daily 100 mg CORT125134 with nab-paclitaxel infusions, 8 months, one patient)	tumor volume reduction compared to baseline volume (CT scans) ([3]; scanned again one month after the third month, daily 100 mg CORT125134 with nab-paclitaxel)	tumor volume reduction compared to baseline (scan) ([3]; seventh month of treatment, daily 100 mg CORT125134 with nab-paclitaxel, one patient)	tumor volume reduction compared to start of study (CT scans) ([3]; third month/cycle of treatment, daily 100 mg CORT125134 with nab-paclitaxel, one patient)
Cn1cc(S(=O)(=O)N2CCC3=Cc4c(cnn4-c4ccc(F)cc4)C[C@]3(C(=O)c3cc(C(F)(F)F)ccn3)C2)cn1 [CORT125134, (R)-(1-(4-fluorophenyl)-6-((1-methyl-1H-pyrazol-4-yl)sulfonyl)-4,4a,5,6,7,8-hexahydro-1H-pyrazolo[3,4-g]isoquinolin-4a-yl)(4-(trifluoromethyl)pyridin-2-yl)methanone]	superior to the paclitaxel group in reducing tumor growth	most significant tumor growth reduction	more than 50%	partial response (PR); also recorded: sustained partial response	tolerated the treatment reasonably well; also recorded: tolerated the treatment with CORT125134 and nab-paclitaxel well	approximately 40%	40%	approximately 40%
Cn1ncc(S(=O)(=O)N2CC[C@H]3Cc4c(cnn4-c4ccc(F)cc4)C[C@]3(C(=O)c3cc(C(F)(F)F)ccn3)C2)n1 [CORT125281, ((4aR,8aS)-1-(4-fluorophenyl)-6-((2-methyl-2H-1,2,3-triazol-4-yl)sulfonyl)-4,4a,5,6,7,8,8a,9-octahydro-1H-pyrazolo[3,4-g]isoquinolin-4a-yl)(4-(trifluoromethyl)pyridin-2-yl)methanone]	superior to the paclitaxel group in reducing tumor growth							

Source: patent publication US12370175B2, “Glucocorticoid receptor modulators to treat pancreatic cancer” (Corcept Therapeutics, Inc., priority 2016, dated 2025)
